The source of these data is patent US11723894B2, “Combination product for the treatment of neurological and/or psychiatric disorders” (Consejo Superior de Investigaciones Cientificas (CSIC), priority 2017, dated 2023).

For test [1], the system named is Human SH-SY5Y dopaminergic cells. Put plainly: 6-OHDA in vitro model of Parkinson's Disease, nitrite quantification (Griess). Particulars: DMT 1 μM 1 h, then 6-OHDA 30 μM 24 h. The class given is cell-based. Background: Nitrite, measured by Griess reagent, commonly stands in for NO production.
Test [2] relates to dopaminergic neurons of the Substantia nigra pars compacta. In words: 6-OHDA in vivo model of Parkinson's Disease (injection into Substantia nigra pars compacta). Also on record: species or system C57BL/6 mice. Particulars: 0.1 μg DMT co-injected with 5 μg 6-OHDA into SNpc, 3 weeks. The procedure:
Example 10: DMT administration prevents dopaminergic cell death in a in vivo model of Parkinson's disease. Adult male C57BL/6 mice (8-12 weeks old) were used in this study. Animals were properly anaesthetized and placed in a stereotaxic apparatus (Kopf Instruments, CA). 6-OHDA (5 μg in […] PBS) was injected into the right side of the Substantia nigra pars compacta (SNpc) (coordinates from Bregma: posterior −3.2 mm; lateral +2.0 mm; ventral: +4.7 mm, according to the atlas of Paxinos and Franklin, The Mouse Brain in Stereotaxic Coordinates. 4. San Diego: Academic Press; 2012). Control animals of the same age were injected with PBS. A third group received an injection with 6-OHDA (5 μg) combined with DMT (0.1 μg) in […] PBS. Mice were then housed individually to recover and sacrificed 3 weeks later. At this point animals were anaesthetized and perfused transcardially with a 4% paraformaldehyde solution. The brains were removed, postfixed in the same solution at 4° C. overnight, cryoprotected in 20% sucrose, frozen, and 30 μm coronal sections were obtained in a cryostat. Free-floating sections were processed for double fluorescent immunohistochemistry. […] Neuronal integrity and specifically dopaminergic cell death was assessed by counting the percentage of TH^+ cells in the SNpc following a stereological approach. […] Images were analyzed using computer-assisted image analysis software (Soft Imaging System Corporation, Lakewood, Colo.). Results were expressed as the percentage of dopaminergic cell loss in the SNpc.

The test system of test [3] is microglial cells. In words: LPS-induced nitrite production (Griess) in primary microglial cultures. Conditions: microglia. The class given is cell-based, rat. As for the experimental part:
Example 8: DMT, DET, DPT and 5-MeO-DMT administration in vitro prevents inflammation in rat primary glial cells. […] Rat primary glial cell cultures were prepared from the cerebral cortex of 3 day old rats which were dissected, dissociated, and incubated with 0.25% trypsin/EDTA at 37° C. for 1 h. After centrifugation, the pellet was washed three times with HBSS (Gibco) and the cells were plated in poly-D-lysine (20 μg/mL) pretreated flasks (75 cm2). After 7-10 days, the flasks were agitated in an orbital shaker for 4 h at 230 rpm at 37° C. and non-adherent microglial cells were isolated and plated. Then Dulbecco's Modified Eagle's Medium (DMEM) was added to the flasks, which were agitated in a horizontal shaker at 260 rpm at 37° C. After overnight agitation, the supernatant (oligodendrocytes and some remaining microglial cells) was removed, and astrocytes (adherent cells) were collected. The purity of the cultures was >95%, as determined by immunofluorescence analysis using an anti-glial fibrillary acidic protein (GFAP; clone G-A-5; Sigma-Aldrich) antibody to identify astrocytes, and an anti-Iba1 (Wako Catalog No. 019-19741) antibody to identify microglial cells. On attaining semiconfluence, cells were administered each of the test tryptamines at 1 μM or with the combination test tryptamine+Ritanserin (Rit at 1 μM) 2 h before exposure to lipopolysaccharide (LPS, 10 μg/mL; Sigma-Aldrich) and kept in the presence of each drug or drug combination for 24 h. In combination studies, Rit was added to medium 1h before administration of the corresponding tryptamine. Vehicle-treated cultures were used as a control. After the 24 h drug exposure period, cultures were tested to assess nitrite release. To quantify nitrite concentrations in culture medium, supernatants of glial cultures were collected and mixed with an equal volume of Griess reagent (Sigma-Aldrich). Samples were then incubated at room temperature for 15 min and absorbance was measured at 540 nm on a microplate reader. Results are expressed as the mean±SEM of six replications in three different experiments

As to `CN(C)CCc1c[nH]c2ccccc12` [DMT, N,N-dimethyltryptamine], the “nitrite production brought about by 6-OHDA” value in test [1] (vs 6-OHDA alone) is “significantly reduced”. The “reduction of nitrite levels in the presence of Ritanserin” value in test [1] (Rit 1 μM 1 h) is “preserved”. For the same compound, in test [2], the “average percentage of dopaminergic cell loss in the SNpc” value turned out to be 10%; the “decrease in dopaminergic neurons and increase in activated astroglial and microglial cells (images)” value is “virtually absent”. In test [3] (Rit 1 μM 1 h before tryptamine 1 μM, then LPS 10 μg/mL 24 h), the “reduction of LPS-induced nitrite in the presence of Rit” value is reported as “maintained”. Besides, the LPS-induced nitrite increases result in test [3] (tryptamine 1 μM before LPS 10 μg/mL, 24 h, vs LPS alone) is given as “significantly reduced”.
